Patent publication US20090074878A1, “Non-Toxic Water Soluble Inorganice Antimicrobal Polymer and Related Methods” (priority 2005, published 2009)

Tested on: E coli O157:H7
Assay: Effect of pH on Concrobium activity, lysis under light microscope (Example 5)
Assay type: cell-based
Settings: one million CFU
Experimental: One million CFU of E coli O157:H7 were incubated with the following and samples of each were observed under a light microscope:
1. 1 mL of Concrobium, normal saline and 0.1 N (normal) sodium hydroxide 2. 1 mL of Concrobium and normal saline 3. 1 mL normal saline

`[Na+].[OH-]` [sodium hydroxide] was tested, and the “lysing effect on E coli in suspension” value was “lysed the E. coli in suspension”.
